Consider eleven compounds from ChEMBL document CHEMBL4130407, “A novel class of thiosemicarbazones show multi-functional activity for the treatment of Alzheimer's disease” (Eur J Med Chem, 2017).

The test system of test [1] is SK-N-MC. The test can be described thus: cells. The conditions noted are these: Homo sapiens, read-out: Activity.
Description: (§1) Neuroprotective activity against H2O2-induced cell death in human SK-N-MC cells assessed as cell viability at 10 uM preincubated for 2 hrs followed by H2O2 addition and measured after 24 hrs by MTT assay
Test [2] deals with SK-N-MC. The test can be described thus: cells. It is filed as ADME, cell-based. The conditions noted are these: Homo sapiens, 72 h.
Description: Antiproliferative activity against human SK-N-MC cells after 72 hrs by MTT assay
The subject of test [3] is SK-N-MC. The test is described as follows: Induction of autophagy in human SK-N-MC cells assessed as decrease in p62 level at 25 uM after 24 hrs by Western blot analysis. It counts as functional, cell-based.
Test [4] concerns SK-N-MC. The test can be described thus: Induction of autophagy in human SK-N-MC cells assessed as increase in LC3 accumulation at 25 uM after 24 hrs in presence of autophagy inhibitor Baf1 by Western blot analysis. It counts as functional, cell-based. Background: A western blot detects proteins with antibodies after separation by electrophoresis.
The nature of test [5]: Metal chelation activity assessed as 1:2 Fe3+:L complex formation in DMF:H2O (7:3) solution by EPR spectrscopy.
The nature of test [6]: Metal chelation activity assessed as 1:1 compound to Cu2+L complex formation in DMF:H2O (7:3) solution by cyclic voltametry.
A short description of test [7]: Metal chelation activity assessed as 1:1 compound to Cu2+L complex formation in DMF:H2O (7:3) solution by EPR spectrscopy.
Test [8] deals with Acetylcholinesterase (Electrophorus electricus, UniProt O42275). The test is described as follows: Inhibition of electric eel AChE using acetylthiocholine iodide as substrate preincubated for 15 mins followed by substrate addition measured for 5 mins by UV spectrophotometric analysis.
A short description of test [9]: Metal chelation activity assessed as 1:2 Fe3+:L complex formation in DMF:H2O (7:3) solution by cyclic voltametry.
In test [10] the test system is SK-N-MC. The test is described as follows: Induction of autophagy in human SK-N-MC cells assessed as increase in LC3 accumulation at 25 uM after 24 hrs in absence of autophagy inhibitor Baf1 by Western blot analysis. It counts as functional, cell-based.
In test [11] the test system is SK-N-MC. The conditions noted are these: Homo sapiens, 10 uM.
Description: as §1
For test [12], the system named is SK-N-MC. The test is described as follows: Binding affinity to 59Fe2+ in human SK-N-MC cells labeled with 59Fe2-transferrin assessed as Fe release at 25 uM after 3 hrs by gamma scintillation counting method relative to DFO. It is filed as cell-based.
Test [13] in a line: Metal chelation activity assessed as 1:1 compound to Cu2+L2 complex formation in DMF:H2O (7:3) solution by EPR spectrscopy.
A short description of test [14]: Metal chelation activity assessed as 1:2 Fe2+:L complex formation in DMF:H2O (7:3) solution by EPR spectrscopy.

Calls of active or inactive are those of the source. The rule behind the calls is not given here.

Chain of Acetylcholinesterase (O42275 whole entry): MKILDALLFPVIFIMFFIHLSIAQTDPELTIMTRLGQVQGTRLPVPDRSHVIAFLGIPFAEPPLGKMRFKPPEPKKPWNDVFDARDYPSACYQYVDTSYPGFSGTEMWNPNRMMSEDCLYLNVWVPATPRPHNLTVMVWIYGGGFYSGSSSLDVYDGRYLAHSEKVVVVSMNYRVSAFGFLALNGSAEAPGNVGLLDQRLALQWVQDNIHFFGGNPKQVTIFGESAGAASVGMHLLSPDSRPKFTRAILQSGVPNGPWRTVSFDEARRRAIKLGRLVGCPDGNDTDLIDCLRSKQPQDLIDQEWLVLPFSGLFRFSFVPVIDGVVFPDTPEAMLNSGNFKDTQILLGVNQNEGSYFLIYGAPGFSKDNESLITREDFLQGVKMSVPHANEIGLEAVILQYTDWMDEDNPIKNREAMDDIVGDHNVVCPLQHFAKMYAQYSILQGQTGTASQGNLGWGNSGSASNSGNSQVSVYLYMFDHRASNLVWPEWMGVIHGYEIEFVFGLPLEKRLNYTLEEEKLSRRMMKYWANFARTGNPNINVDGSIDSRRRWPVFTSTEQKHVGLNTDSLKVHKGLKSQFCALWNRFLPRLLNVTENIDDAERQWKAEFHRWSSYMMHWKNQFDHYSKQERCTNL

As usually defined, the IC50 is the concentration that gives 50% inhibition. On to `CC(=O)N(O)CCCCCNC(=O)CCC(=O)N(O)CCCCCNC(=O)CCC(=O)N(O)CCCCCN` [DEFEROXAMINE], for which the viability at 10 µM in test [1] turned out to be 89%. The same compound came in with a half-inhibitory concentration (IC50) in [2] of 16.8 µM.
For `CN(C)C(=S)NN=C(c1ccccn1)c1ccccn1`, the outcome in test [3] and in [4] was Active. The compound further displayed a concentration for half-maximal inhibition (IC50) in [2] of 0.013 µM.
Consider `S=C(N/N=C/c1ccc2ccccc2n1)NC1CCN(Cc2ccccc2)CC1`, for which the outcome in test [3] and in [4] was inactive. Moreover, the result in test [5], in test [6], in test [7] and in [9] was Active. Besides, in [1], the viability at 10 µM is 66 to 87%. Besides, the IC50 was 17.7 µM in test [2] and 1.02 to 22.6 µM in test [8].
On to `Oc1ccc2ccccc2c1/C=N/NC(=S)NC1CCN(Cc2ccccc2)CC1`, for which the outcome in test [3], in test [5], in test [10], in test [6], in test [7] and in [9] was Active. In addition, the outcome in [11], in test [4] and in test [13] was inactive. For the same compound, in test [12], the Activity worked out at 16%. Moreover, the figures for the IC50 in test [2] and in test [8] were 8.86 µM and 1.23 µM, respectively.
Take `S=C(N/N=C/c1ccccn1)NC1CCN(Cc2ccccc2)CC1`: the outcome in [3] was inactive. In addition, the outcome in test [5], in [6], in test [4], in test [7] and in [9] was Active. For the same compound, the viability at 10 µM in test [1] lay in the range of 66 to 87%. Also, the Activity in test [12] is 18%. Also, the IC50 in test [2] was 4.23 µM; in test [8], 1.02 to 22.6 µM.
On to `Oc1cccc2ccc(/C=N/NC(=S)NC3CCN(Cc4ccccc4)CC3)nc12`, for which the outcome in test [3] was inactive. Also, the result in test [10], in test [6], in [4], in test [7] and in test [9] was Active. The viability at 10 µM in test [1] was 66 to 87%. For the same compound, the Activity in test [12] is 17%. Also, the IC50 was 36.1 µM in [2] and 1.02 to 22.6 µM in [8].
Consider `Oc1ccccc1/C=N/NC(=S)NC1CCN(Cc2ccccc2)CC1`, for which the outcome in [3], in [5], in [6], in test [7] and in test [9] was Active. Further, the viability at 10 µM in test [1] is 66 to 87%. The result in test [4] and in test [13] was inactive. For the same compound, the Activity in [12] stood at 28%. Moreover, the IC50 in test [2] was 34.4 µM; in [8], 1.02 to 22.6 µM.
For the compound `Oc1ccc(/C=N/NC(=S)NC2CCN(Cc3ccccc3)CC2)c(O)c1O`, the outcome in test [3] was inactive. Moreover, the viability at 10 µM in test [1] lay within 66 to 87%. Moreover, the outcome in test [4], in test [7] and in test [14] was Active. Moreover, the Activity in test [12] stood at 14%. The IC50 was 79.1 µM in [2] and 1.02 to 22.6 µM in test [8].
On to `Oc1cccc(/C=N/NC(=S)NC2CCN(Cc3ccccc3)CC2)c1O`, for which the result in test [3] and in test [4] was inactive. In addition, the outcome in test [10] and in [7] was Active. Also, the viability at 10 µM in [1] lay within 66 to 87%. For the same compound, the Activity in [12] came out at 29%. The concentration for half-maximal inhibition (IC50) in [2] came out at 16.9 µM; in [8], 1.02 µM.
Regarding `COc1cc2c(cc1OC)C(=O)C(CC1CCN(Cc3ccccc3)CC1)C2` (stereo unspecified) [DONEPEZIL], the viability at 10 µM in test [1] came out at 74%. The IC50 in test [2] was above 100 µM.
`Cc1ncc(CO)c(/C=N/NC(=S)NC2CCN(Cc3ccccc3)CC2)c1O`: the outcome in [3] and in test [13] was inactive. The outcome in test [5], in test [6], in test [4], in [7] and in test [9] was Active. For the same compound, in test [1], the viability at 10 µM is 66 to 87%. Moreover, the Activity in test [12] amounted to 31%. In addition, the IC50 in test [2] is above 100 µM; in [8] it was 4.93 µM.
